“And” between values parts separate entries of the source, which are not always exact repeats. Equal entries are not always repeated. Inconclusive results and toxic doses are left out. Cut-off read from the data, not from the text of the source: active = T/C of 150% or more; inactive = T/C below 125%.
System: L1210 leukemia ip in BDF1 mice, survival T/C
Experiment: NCI In Vivo Anticancer Drug Screen. Data for tumor model L1210 Leukemia (intraperitoneal) in B6D2F1 (BDF1) mice
Conditions: endpoint: mean survival time, higher = longer survival
Outline: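 Value reflects the ratio of survival in compound-treated mice to survival in vehicle-treated controls, with both groups carrying the same transplanted tumor.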

[1] = dose: 75.0 mg/kg/injection, schedule: Q01DX001 (ip), vehicle: acetone
[2] = dose: 150.0 mg/kg/injection, schedule: Q01DX001 (ip), vehicle: acetone
[3] = dose: 100.0 mg/kg/injection, schedule: Q04DX002 (ip), vehicle: saline
[4] = dose: 200.0 mg/kg/injection, schedule: Q04DX002 (ip), vehicle: saline
[5] = dose: 400.0 mg/kg/injection, schedule: Q04DX002 (ip), vehicle: saline
[6] = dose: 100.0 mg/kg/injection, schedule: Q01DX009 (ip), vehicle: Klucel (hydroxypropylcellulose) (HPC)
[7] = dose: 200.0 mg/kg/injection, schedule: Q01DX009 (ip), vehicle: Klucel (hydroxypropylcellulose) (HPC)
[8] = dose: 400.0 mg/kg/injection, schedule: Q01DX009 (ip), vehicle: Klucel (hydroxypropylcellulose) (HPC)
[9] = dose: 50.0 mg/kg/injection, schedule: Q01DX001 (ip), vehicle: saline
[10] = dose: 100.0 mg/kg/injection, schedule: Q01DX001 (ip), vehicle: saline
[11] = dose: 200.0 mg/kg/injection, schedule: Q01DX001 (ip), vehicle: saline
[12] = dose: 400.0 mg/kg/injection, schedule: Q01DX001 (ip), vehicle: saline
[13] = dose: 100.0 mg/kg/injection, schedule: Q01DX001 (ip), vehicle: carboxymethylcellulose (CMC)
[14] = dose: 200.0 mg/kg/injection, schedule: Q01DX001 (ip), vehicle: carboxymethylcellulose (CMC)
[15] = dose: 400.0 mg/kg/injection, schedule: Q01DX001 (ip), vehicle: carboxymethylcellulose (CMC)
[16] = dose: 100.0 mg/kg/injection, schedule: Q04DX002 (ip), vehicle: Klucel (hydroxypropylcellulose) (HPC)
[17] = dose: 200.0 mg/kg/injection, schedule: Q04DX002 (ip), vehicle: Klucel (hydroxypropylcellulose) (HPC)
[18] = dose: 25.0 mg/kg/injection, schedule: Q04DX003 (ip), vehicle: Klucel (hydroxypropylcellulose) (HPC)
[19] = dose: 100.0 mg/kg/injection, schedule: Q04DX003 (ip), vehicle: saline
[20] = dose: 200.0 mg/kg/injection, schedule: Q04DX003 (ip), vehicle: saline
[21] = dose: 400.0 mg/kg/injection, schedule: Q04DX003 (ip), vehicle: saline

Measured: T/C

c1cc2c([nH]1)CCCC2
inactive: [1] 106 % of control | [2] 111 % of control | dose: 300.0 mg/kg/injection, schedule: Q01DX001 (ip), vehicle: acetone 100 % of control

Cc1ccc(Nc2cccc3c2C(=O)c2c(Nc4ccc(C)cc4C)cccc2C3=O)c(C)c1
inactive: [3] 97 % of control | [4] 117 % of control | [5] 100 % of control

O=C(O)c1c(Br)c(Br)c(Br)c(Br)c1C(=O)Nc1ccc(Cl)c(Cl)c1
inactive: [6] 95 % of control | [7] 98 % of control | [8] 120 % of control

O=c1cc(/C=N\Nc2ccccc2)[nH]c(=O)[nH]1
inactive: [9] 93 % of control | [10] 96 % of control | [11] 93 % of control | [12] 96 % of control

CCOC(=O)C(C#N)(CC/C(C)=N/Nc1ccc([N+](=O)[O-])cc1[N+](=O)[O-])C(C)COC(C)=O (stereo not given)
inactive: dose: 100.0 mg/kg/injection, schedule: Q01DX001 (ip), vehicle: Klucel (hydroxypropylcellulose) (HPC) 94 % of control | dose: 200.0 mg/kg/injection, schedule: Q01DX001 (ip), vehicle: Klucel (hydroxypropylcellulose) (HPC) 91 % of control | dose: 400.0 mg/kg/injection, schedule: Q01DX001 (ip), vehicle: Klucel (hydroxypropylcellulose) (HPC) 102 % of control

CCc1ccc(C(O)C(=O)O)cc1 (stereo not given)
inactive: [1] 90 % of control | [2] 94 % of control

CN(C)c1ccc(/C=C2\C=Cc3ccccc32)c(F)c1
inactive: [6] 98 % of control | dose: 100.0 mg/kg/injection, schedule: Q04DX003 (ip), vehicle: Klucel (hydroxypropylcellulose) (HPC) 96 % of control | [7] 101 % of control | dose: 200.0 mg/kg/injection, schedule: Q04DX003 (ip), vehicle: Klucel (hydroxypropylcellulose) (HPC) 93 % of control | [8] 92 % of control | dose: 400.0 mg/kg/injection, schedule: Q04DX003 (ip), vehicle: Klucel (hydroxypropylcellulose) (HPC) 96 % of control

c1ccc(Cn2cnc3c2nnn2ncnc32)cc1
inactive: [13] 106 % of control | [14] 102 % of control | [15] 114 % of control

O=C(CC(O)(C(F)(F)F)C(F)(F)F)c1cc(Cl)ccc1Cl
inactive: dose: 100.0 mg/kg/injection, schedule: Q04DX003 (ip), vehicle: saline with Tween-80 112 % of control | dose: 200.0 mg/kg/injection, schedule: Q04DX003 (ip), vehicle: saline with Tween-80 105 % of control | dose: 400.0 mg/kg/injection, schedule: Q04DX003 (ip), vehicle: saline with Tween-80 103 % of control

CCOC(=O)CNc1cc(Cl)cc(Cl)c1
inactive: [16] 100 % of control | [17] 96 % of control | dose: 400.0 mg/kg/injection, schedule: Q04DX002 (ip), vehicle: Klucel (hydroxypropylcellulose) (HPC) 96 % of control

O=C(C=P(c1ccccc1)(c1ccccc1)c1ccccc1)CCl
inactive: dose: 6.25 mg/kg/injection, schedule: Q01DX001 (ip), vehicle: Klucel (hydroxypropylcellulose) (HPC) 102 % of control | dose: 6.25 mg/kg/injection, schedule: Q01DX009 (ip), vehicle: Klucel (hydroxypropylcellulose) (HPC) 103 % of control | dose: 6.25 mg/kg/injection, schedule: Q04DX003 (ip), vehicle: Klucel (hydroxypropylcellulose) (HPC) 97 % of control | dose: 12.5 mg/kg/injection, schedule: Q01DX001 (ip), vehicle: Klucel (hydroxypropylcellulose) (HPC) 98 % of control | dose: 12.5 mg/kg/injection, schedule: Q01DX009 (ip), vehicle: Klucel (hydroxypropylcellulose) (HPC) 101 % of control | dose: 12.5 mg/kg/injection, schedule: Q04DX003 (ip), vehicle: Klucel (hydroxypropylcellulose) (HPC) 97 % of control | dose: 25.0 mg/kg/injection, schedule: Q01DX001 (ip), vehicle: Klucel (hydroxypropylcellulose) (HPC) 98 % of control | dose: 25.0 mg/kg/injection, schedule: Q01DX009 (ip), vehicle: Klucel (hydroxypropylcellulose) (HPC) 104 % of control | [18] 100 % of control

CC(C)OP1(=O)OCC(C)O1 (stereo not given)
inactive: [10] 102 % of control | [11] 98 % of control | [12] 102 % of control

CCC(N)(C(=O)O)C1CCCCC1 (stereo not given)
inactive: [19] 96 % of control | [20] 94 % of control | [21] 93 % of control

CCCCCCCCc1ccc(OC(C)OCCOCCOCC)cc1 (stereo not given)
inactive: [3] 88 % of control | [4] 88 % of control | [5] 98 % of control

CN(C)c1ccc(/C=N\NC(=O)CCCC(=O)N/N=C/c2ccc(N(C)C)cc2)cc1
inactive: [9] 93 % of control | [10] 96 % of control | [11] 98 % of control | [12] 93 % of control

O=[N+]([O-])/C=C/c1cccc([N+](=O)[O-])c1
inactive: [18] 103 % of control | dose: 50.0 mg/kg/injection, schedule: Q04DX003 (ip), vehicle: Klucel (hydroxypropylcellulose) (HPC) 103 % of control

O=S(=O)([O-])CC[n+]1ccc(-c2ccccc2)o1
inactive: [13] 94 % of control | [19] 110 % of control | [14] 97 % of control | [20] 103 % of control | [15] 97 % of control | [21] 118 % of control

COC1OC(COS(C)(=O)=O)C(O)C(OS(C)(=O)=O)C1OS(C)(=O)=O (stereo not given)
inactive: dose: 50.0 mg/kg/injection, schedule: Q04DX002 (ip), vehicle: Klucel (hydroxypropylcellulose) (HPC) 93 % of control | [16] 93 % of control | [17] 101 % of control

O=C1c2ccccc2-c2cc(Br)c(NC(=O)C(Cl)Cl)cc21
inactive: [13] 115 % of control | [14] 98 % of control | [15] 98 % of control

CCCCCCCCCCCCCCCCCCNC(=S)NN=C(NNC(=S)NCCCCCCCCCCCCCCCCCC)NNC(=S)NCCCCCCCCCCCCCCCCCC
inactive: dose: 15.0 mg/kg/injection, schedule: Q01DX Z (ip), vehicle: carboxymethylcellulose (CMC) 101 % of control | dose: 30.0 mg/kg/injection, schedule: Q01DX Z (ip), vehicle: carboxymethylcellulose (CMC) 111 % of control | dose: 60.0 mg/kg/injection, schedule: Q01DX Z (ip), vehicle: carboxymethylcellulose (CMC) 109 % of control and 114 % of control | dose: 120.0 mg/kg/injection, schedule: Q01DX Z (ip), vehicle: carboxymethylcellulose (CMC) 114 % of control | dose: 240.0 mg/kg/injection, schedule: Q01DX Z (ip), vehicle: carboxymethylcellulose (CMC) 111 % of control | dose: 480.0 mg/kg/injection, schedule: Q01DX Z (ip), vehicle: carboxymethylcellulose (CMC) 111 % of control

O=c1[nH][n+]([O-])cc2c(C(O)=C(O)O)c[nH]c12
inactive: dose: 25.0 mg/kg/injection, schedule: Q04DX002 (ip), vehicle: saline with Tween-80 94 % of control | dose: 50.0 mg/kg/injection, schedule: Q04DX002 (ip), vehicle: saline with Tween-80 98 % of control | dose: 100.0 mg/kg/injection, schedule: Q04DX002 (ip), vehicle: saline with Tween-80 105 % of control

CCCCC(CC)CSCC(CC)CCCC (stereo not given)
inactive: dose: 100.0 mg/kg/injection, schedule: Q04DX003 (ip), vehicle: saline sonified 97 % of control | dose: 200.0 mg/kg/injection, schedule: Q04DX003 (ip), vehicle: saline sonified 93 % of control | dose: 400.0 mg/kg/injection, schedule: Q04DX003 (ip), vehicle: saline sonified 97 % of control

O=C(O)c1cnc(Cl)nc1Nc1ccccc1I
inactive: dose: 6.25 mg/kg/injection, schedule: Q01DX009 (ip), vehicle: saline with Tween-80 93 % of control | dose: 12.5 mg/kg/injection, schedule: Q01DX001 (ip), vehicle: saline with Tween-80 90 % of control | dose: 12.5 mg/kg/injection, schedule: Q01DX009 (ip), vehicle: saline with Tween-80 88 % of control | dose: 25.0 mg/kg/injection, schedule: Q01DX001 (ip), vehicle: saline with Tween-80 90 % of control

Reference: PubChem BioAssay AID248 (DTP/NCI, 2004)
